Results from patent publication US20110112147A1, “INDAZOLONE ANALOGS AS GLYCOGEN SYNTHASE ACTIVATORS” (priority 2009, published 2011).

System: glycogen synthase
Assay: Glycogen Synthase (GS) Assay
Type: biochemical
Conditions: for EC50: compound concentration needed to give 50% maximum activation; for GS SC200: compound concentration needed to stimulate 200% of the enzyme activity
Method: Twelve μL per well of substrate solution containing glycogen (4.32 mg/ml), 2.67 mM UDP-glucose, 21.6 mM phospho(enol)pyruvate and 2.7 mM NADH in 30 mM glycylglycine, pH 7.3 buffer was added into a polystyrene 384-well assay plate (BD Biosciences).
Compound solutions (8 μL/well) at various concentrations (0-300 μM) were added to the assay plate (columns 5-24). Compound solution contains 30 mM glycylglycine, pH 7.3, 40 mM KCl, 20 mM MgCl2, 9.2% DMSO, with (columns 15-24) or without (columns 5-14) 20 mM glucose 6-phosphate.
Enzyme solution (12 μL/well) containing glycogen synthase (16.88 μg/ml), pyruvate kinase (0.27 mg/ml), lactate dehydrogenase (0.27 mg/ml) in 50 mM Tris-HCl, pH 8.0, 27 mM DTT and bovine serum albumin (BSA, 0.2 mg/ml) was added to the assay plate (columns 3-24). As a blank control, enzyme solution without glycogen synthase was added into the top half wells of columns 1-2. To the bottom half wells of columns 1-2 were added a known activator, glucose 6-phosphate (at final concentration 5 mM) in addition to the enzyme solution. The reaction mixture was incubated at room temperature. The assay plate was then read for absorbance at 340 nm on an Envision reader every 3 minutes up to a total of 15 minutes.
The enzyme activity (with or without compound) was calculated by the reaction rate and represented by the optical density change (δOD) per minute. Percent stimulation of glycogen synthase activity by a compound at various concentrations was calculated by the following formula: […]
wherein Rs is the reaction rate of the enzyme in the presence of compound and Rt is the reaction rate of the enzyme in the absence of compound.
SC200 is defined as the compound concentration that is needed to stimulate 200% of the enzyme activity. EC50 is defined as the compound concentration that is needed to give 50% maximum activation.

| SMILES | EC50 [nM] | GS SC200 [µM] |
| --- | --- | --- |
| Cc1cc(F)c(F)cc1-c1ccc(OCc2cccc3c(=O)n(C)[nH]c23)cc1 [Example 1, 7-(4′,5′-Difluoro-2′-methyl-biphenyl-4-yloxymethyl)-2-methyl-1,2-dihydro-indazol-3-one] | 240 | 0.13 |
| Cn1[nH]c2c(COc3ccc(-c4cc(F)c(F)cc4F)cc3)cccc2c1=O [Example 2, 2-Methyl-7-(2′,4′,5′-trifluoro-biphenyl-4-yloxymethyl)-1,2-dihydro-indazol-3-one] | 1780 | 0.49 |
| COc1cc(F)c(F)cc1-c1ccc(OCc2cccc3c(=O)n(C)[nH]c23)cc1 [Example 3, 7-(4′,5′-Difluoro-2′-methoxy-biphenyl-4-yloxymethyl)-2-methyl-1,2-dihydro-indazol-3-one] | 330 | 0.04 |
| O=C(O)Cn1[nH]c2c(COc3ccc(-c4cc(F)c(F)cc4F)cc3)cccc2c1=O [Example 4, [3-oxo-7-(2′,4′,5′-trifluoro-biphenyl-4-yloxymethyl)-1,3-dihydro-indazol-2-yl]-acetic acid] | 1200 | 0.69 |
| COc1cc(F)c(F)cc1-c1ccc(OCc2cccc3c(=O)n(CC(=O)O)[nH]c23)cc1 [Example 5, [7-(4′,5′-Difluoro-2′-methoxy-biphenyl-4-yloxymethyl)-3-oxo-1,3-dihydro-indazol-2-yl]-acetic acid] | 200 | 0.06 |
| COCCn1[nH]c2c(COc3ccc(-c4cc(F)c(F)cc4F)cc3)cccc2c1=O.Cl [Example 6, 2-(2-Methoxy-ethyl)-7-(2′,4′,5′-trifluoro-biphenyl-4-yloxymethyl)-1,2-dihydro-indazol-3-one Hydrochloride] | 790 | 0.52 |
| COCCn1[nH]c2c(COc3ccc(-c4cc(F)c(F)cc4OC)cc3)cccc2c1=O [Example 7, 7-(4′,5′-Difluoro-2′-methoxy-biphenyl-4-yloxymethyl)-2-(2-methoxy-ethyl)-1,2-dihydro-indazol-3-one] | 370 | 0.11 |
| O=c1c2cccc(COc3ccc(-c4cc(F)c(F)cc4F)cc3)c2[nH]n1CCO [Example 8, 2-(2-Hydroxy-ethyl)-7-(2′,4′,5′-trifluoro-biphenyl-4-yloxymethyl)-1,2-dihydro-indazol-3-one] | 770 | 0.22 |
| Cc1cc(F)c(F)cc1-c1ccc(OCc2cccc3c(=O)n(CC(=O)O)[nH]c23)cc1.Cl [Example 9, [7-(4′,5′-Difluoro-2′-methyl-biphenyl-4-yloxymethyl)-3-oxo-1,3-dihydro-indazol-2-yl]acetic acid Hydrochloride] | 420 | 0.33 |
| Cc1cc(F)c(F)cc1-c1ccc(OCc2cccc3c(=O)n(-c4ccc(F)cc4)[nH]c23)cc1 [Example 10, 7-(4′,5′-Difluoro-2′-methyl-biphenyl-4-yloxymethyl)-2-(4-fluoro-phenyl)-1,2-dihydro-indazol-3-one] | 1470 | 1.86 |
| COc1cc(F)c(F)cc1-c1ccc(OCc2cccc3c(=O)n(-c4ccc(F)cc4)[nH]c23)cc1 [Example 11, 7-(4′,5′-Difluoro-2′-methoxy-biphenyl-4-yloxymethyl)-2-(4-fluoro-phenyl)-1,2-dihydro-indazol-3-one] | 1370 | 2.01 |
| COc1cc(F)c(F)cc1-c1ccc(OCc2cccc3c(=O)n(-c4cccnc4)[nH]c23)cc1 [Example 12, 7-(4′,5′-Difluoro-2′-methoxy-biphenyl-4-yloxymethyl)-2-pyridin-3-yl-1,2-dihydro-indazol-3-one] | 780 | 0.60 |
| Cl.O=c1c2cccc(COc3ccc(-c4cc(F)c(F)cc4F)cc3)c2[nH]n1-c1cccnc1 [Example 13, 2-Pyridin-3-yl-7-(2′,4′,5′-trifluoro-biphenyl-4-yloxymethyl)-1,2-dihydro-indazol-3-one Hydrochloride] | 4010 | 2.75 |
| O=c1c2cccc(COc3ccc(-c4cc(F)c(F)cc4Cl)cc3)c2[nH]n1-c1cccnc1 [Example 14, 7-(4′,5′-Difluoro-2′-chloro-biphenyl-4-yloxymethyl)-2-pyridin-3-yl-1,2-dihydro-indazol-3-one] | 1860 | 1.14 |
| O=c1c2cccc(COc3ccc(-c4cc(F)c(F)cc4F)cc3)c2[nH]n1C[C@@H](O)CO [Example 15, 2-((R)-2,3-Dihydroxy-propyl)-7-(2′,4′,5′-trifluoro-biphenyl-4-yloxymethyl)-1,2-dihydro-indazol-3-one] | 680 | 0.32 |

Continued, in another order:

| EC50 [nM] | SMILES | GS SC200 [µM] |
| --- | --- | --- |
| 580 | O=c1c2cccc(COc3ccc(-c4cc(F)c(F)cc4F)cc3)c2[nH]n1C[C@H](O)CO [Example 16, 2-((S)-2,3-Dihydroxy-propyl)-7-(2′,4′,5′-trifluoro-biphenyl-4-yloxymethyl)-1,2-dihydro-indazol-3-one] | 0.41 |
| 270 | COc1cc(F)c(F)cc1-c1ccc(OCc2cccc3c(=O)n(C[C@@H](O)CO)[nH]c23)cc1 [Example 17, 7-(4′,5′-Difluoro-2′-methoxy-biphenyl-4-yloxymethyl)-2-((R)-2,3-dihydroxy-propyl)-1,2-dihydro-indazol-3-one] | 0.06 |
| 250 | COc1cc(F)c(F)cc1-c1ccc(OCc2cccc3c(=O)n(C[C@H](O)CO)[nH]c23)cc1 [Example 18, 7-(4′,5′-Difluoro-2′-methoxy-biphenyl-4-yloxymethyl)-2-((S)-2,3-dihydroxy-propyl)-1,2-dihydro-indazol-3-one] | 0.07 |
| 230 | Cc1cc(F)c(F)cc1-c1ccc(OCc2cccc3c(=O)n(C[C@@H](O)CO)[nH]c23)cc1 [Example 19, 7-(4′,5′-Difluoro-2′-methyl-biphenyl-4-yloxymethyl)-2-((R)-2,3-dihydroxy-propyl)-1,2-dihydro-indazol-3-one] | 0.10 |
| 340 | Cc1cc(F)c(F)cc1-c1ccc(OCc2cccc3c(=O)n(C[C@H](O)CO)[nH]c23)cc1 [Example 20, 7-(4′,5′-Difluoro-2′-methyl-biphenyl-4-yloxymethyl)-2-((S)-2,3-dihydroxy-propyl)-1,2-dihydro-indazol-3-one] | 0.11 |
| 260 | O=c1c2cccc(COc3ccc(-c4cc(F)c(F)cc4Cl)cc3)c2[nH]n1C[C@@H](O)CO [Example 21, 7-(2′-Chloro-4′,5′-difluoro-biphenyl-4-yloxymethyl)-2-((R)-2,3-dihydroxy-propyl)-1,2-dihydro-indazol-3-one] | 0.25 |
| 300 | O=c1c2cccc(COc3ccc(-c4cc(F)c(F)cc4Cl)cc3)c2[nH]n1C[C@H](O)CO [Example 22, 7-(2′-Chloro-4′,5′-difluoro-biphenyl-4-yloxymethyl)-2-((S)-2,3-dihydroxy-propyl)-1,2-dihydro-indazol-3-one] | 0.16 |
